According to patent publication US4372973A, “16-Amino-postaglandin derivatives, their acid addition salts, and a process for the preparation thereof” (priority 1981, dated 1983):
Entries after “also recorded” stand apart in the source; their conditions may differ.

Key:
guinea pig ileum = assay: Smooth muscle contraction, ileum; type: cell-based; conditions: PGF2α = 1.00
From the text: (§1) The compounds prepared according to the process of the invention were submitted to several tests developed for detecting the effects of 9α, 11α, 15(S)-trihydroxy-5-cis, 13-trans-prostadienoic acid (PGF2α). From the organs containing smooth muscle guinea pig trachea, ileum and rat uterine horn were used in the trials. The organs were suspended in isotonic salt medium and the potency was registered on the basis of isotonic contractions (Pharmacological Experiments on Isolated Preparations, Ed. W. L. M. Perry and E. S. Livingstone, Edinburgh and London (1970)). The effect exerted on the aggregation of human blood platelets, induced by 5.10^-5 mole/lit. of adenosine-5'-phosphate, was measured in a CHRONO LOG Aggregometer according to A. V. R. Born (J. Physiol. 162, 67 (1962)).

rat uterine horn = assay: Smooth muscle contraction, uterus; type: cell-based; conditions: PGF2α = 1.00
From the text: as §1

human blood platelets = assay: Inhibition of blood platelet aggregation; type: cell-based; conditions: 100 μg/ml, induced by 5.10^-5 mole/lit. of adenosine-5'-phosphate
From the text: as §1

[1] = system: 15-hydroxy-prostaglandin-dehydrogenase; assay: 15-Hydroxy-prostaglandin-dehydrogenase substrate test; type: in vitro ADME; parameters: key: substrate; O: no substrate of the enzyme; conditions: In this test the concentration of the compounds 1.10^-4 mole/lit.
Experimental: Beyond these tests it was determined according to P. Tolnay et al. (Acta Biochim. Biophys. Acad. Sci. Hung. 14, 67 (1979)) whether the compounds of the invention are substrates of the 15-hydroxy-prostaglandin-dehydrogenaseenzyme.

[2] = Laxative effect (diarrhea) at abortive doses; type: in vivo, white mice
Experimental: (§2) The favorable biological properties of the new compounds of the invention are clearly manifested in their abortive effect. The test materials were administered subcutaneously to white mice on the 17th or 18th day of pregnancy, then the deliveries were followed up in the subsequent 48 hours, and the overall status of the excised uterus (scars, embrional residual debris) was evaluated (M. J. R. Harper et al.: Advances in Biosciences 9, 789 (1973)). In groups containing 5 animals the dose effect relationships of PGF2α, its methyl ester, as well as of the new 16-amino-prostaglandin derivatives were determined.

[3] = system: white mice on the 17th or 18th day of pregnancy; assay: Abortive effect in pregnant mice; type: in vivo; conditions: s.c.; for ED50: Mus musculus, sc, 48 h, body weight, white mice, 17th or 18th day of pregnancy, 5 animals per group
Experimental: as §2

guinea pig trachea = assay: Smooth muscle contraction, trachea; type: cell-based; parameters: key: +: contraction on trachea; O: inactive on trachea; conditions: 1 μg/ml
From the text: as §1

Compound	Smooth muscle contraction relative efficiency Ileum (guinea pig ileum)	Smooth muscle contraction relative efficiency Uterus (rat uterine horn)	inhibition at 100 µg/mL (human blood platelets) [%]	15-Hydroxy-prostaglandin-dehydrogenase (substrate or no substrate) [1]	laxative effect ([2]; mouse, in vivo)	ED50 [3] [mg/kg]	Smooth muscle contraction Trachea (guinea pig trachea)	diarrhea ([2]; even at the tenfold of the abortive dose)	abortive potency (in words) ([3]; mice, compared to PGF2α, listed as 9 α, 11 α, 15(ksi)-trihydroxy-16(S)-amino-5-cis, 13-trans-prostadienoic acid met)	laxative effect ([2]; at abortive doses)
CCCC[C@H](N)C(O)/C=C/[C@@H]1[C@@H](C/C=C\CCCC(=O)O)[C@@H](O)C[C@H]1O (single isomer, unassigned)	0.11	0.83	75	O						
CCCCC[C@H](O)/C=C/[C@@H]1[C@@H](C/C=C\CCCC(=O)O)[C@@H](O)C[C@H]1O [PGF2α, 9α, 11α, 15(S)-trihydroxy-5-cis, 13-trans-prostadienoic acid, reference compound]	1.00	1.00	82	s	exhibit also a laxative effect	20	+			
CCCC[C@H](N)C(O)/C=C/[C@@H]1[C@@H](C/C=C\CCCC(=O)OC)[C@@H](O)C[C@H]1O (single isomer, unassigned)	0.17	0.99	52	O		0.1	O	no diarrhea is observed	exceedingly high abortive effect; also recorded: the most active agent	
CCCC[C@@H](N)C(O)/C=C/[C@@H]1[C@@H](C/C=C\CCCC(=O)OC)[C@@H](O)C[C@H]1O (single isomer, unassigned)	0.02	0.05		O			O			
CCCC[C@@H](N)C(O)/C=C/[C@@H]1[C@@H](C/C=C\CCCC(=O)O)[C@@H](O)C[C@H]1O (single isomer, unassigned)	0.02	0.13		O			O			
CCCCC[C@H](O)/C=C/[C@@H]1[C@@H](C/C=C\CCCC(=O)OC)[C@@H](O)C[C@H]1O [PGF2α methyl ester, reference compound]	0.78	1.25	56	s		6	+			exhibit also a laxative effect
